Measured values published in paper PMC9970836 (Biomolecules & Therapeutics, 2022).

Target: 5-HT2AR (Homo sapiens, UniProt P28223)
Assay: 5-HT2AR radioligand binding assay

5-HT2AR, sequence (P28223 whole entry): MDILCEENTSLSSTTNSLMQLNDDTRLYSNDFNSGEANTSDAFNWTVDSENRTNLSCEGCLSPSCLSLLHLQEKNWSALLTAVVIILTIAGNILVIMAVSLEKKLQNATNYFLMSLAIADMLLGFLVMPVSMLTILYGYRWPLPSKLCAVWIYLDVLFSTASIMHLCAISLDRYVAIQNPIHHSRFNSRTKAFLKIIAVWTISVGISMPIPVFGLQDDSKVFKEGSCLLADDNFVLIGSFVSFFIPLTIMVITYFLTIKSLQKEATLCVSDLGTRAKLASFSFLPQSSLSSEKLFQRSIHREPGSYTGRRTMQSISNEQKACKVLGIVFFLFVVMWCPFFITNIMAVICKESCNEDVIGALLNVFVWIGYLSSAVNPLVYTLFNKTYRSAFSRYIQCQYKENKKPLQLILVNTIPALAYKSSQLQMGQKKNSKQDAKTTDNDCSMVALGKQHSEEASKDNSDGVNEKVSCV

| SMILES | Ki [nM] |
| --- | --- |
| COc1cc(CCNCc2ccccc2OC)c(OC)cc1C [Compd 6, 2-(2,5-dimethoxy-4-methylphenyl)-N-(2-methoxybenzyl)ethanamine] | 2.88 |
| COc1cc(CCNCc2ccccc2F)c(OC)cc1Cl [Compd 11, 4-chloro-N-[(2-fluorophenyl)methyl]-2,5-dimethoxy-benzeneethanamine] | 10.8 |
| CCCN(CC)CCc1c[nH]c2ccc(OC)cc12 [Compd 20, 5-methoxy -N-ethyl-N-propyl tryptamine] | 122 |
| CCc1cc(OC)c(CCNCc2ccccc2OC)cc1OC [Compd 7, 2-(4-ethyl-2,5-dimethoxyphenyl)-N-(2-methoxybenzyl)ethan-1-amine] | 1.52 |
| COc1cc([N+](=O)[O-])c(OC)cc1CCN [Compd 2, 2,5-Dimethoxy-4-nitrophenethylamine] | 25.2 |
| C=CCN(CC=C)CCc1c[nH]c2ccc(OC)cc12 [Compd 25, N-allyl-N-[2-(5-methoxy-1H-indol-3-yl)ethyl] prop-2-en-1-amine] | 258 |
| CCCc1cc(OC)c(CCN)cc1OC [Compd 1, 2,5-dimethoxy-4-propyl-benzeneethanamine] | 3.47 |
| CCN(CC)CCc1c[nH]c2cccc(OC(C)=O)c12 [Compd 18, 4-Acetoxy-N,N-diethyltryptamine] | 595 |
| COc1cc(CCNCc2ccccc2F)c(OC)cc1Br [Compd 12, 4-bromo-N-[(2-fluorophenyl)methyl]-2,5-dimethoxy-benzeneethanamine] | 3.63 |
| COc1cc(CCNCc2ccccc2OC)c(OC)cc1Cl [Compd 8, 2-(4-chloro-2,5-dimethoxyphenyl)-N-(2-methoxybenzyl)ethanamine] | 0.817 |
